From patent publication US8222260B2, “Substituted 6-anilinopurine derivatives as inhibitors of cytokinin oxidase/dehydrogenase and preparations containing these derivatives” (Univerzita Palackego V Olomouci, priority 2007, dated 2012)
Read-outs that look alike come from different tables or passages of the source.

What was measured:
Experiment in all cases: Calcein AM cytotoxicity assay
[1] = system: osteosarcoma cell line HOS; assay type: cell-based, human; conditions: 72 hours
Description: (§1) Absence of toxic effects against mammalian (especially human) cell lines in a wide concentration range is one of the requirements on compounds intended for use in agriculture and medicine. Because toxic compounds negatively influence metabolic processes in cells, many standard cytotoxicity assays are based on measurement of metabolisation rate of various artificial substrates. Resulting product is then quantified e.g. by means of spectrometry. The assays can be easily modified for use in 96-well plates. For evaluation of cytotoxic effect of compounds of this invention, a microtiter assay based on quantification of metabolisation of Calcein AM was used. The assay is widely used in drug screening programs and in chemosensitivity testing. In live cells, Calcein AM is enzymatically hydrolysed and accumulation of resulting calcein is manifested by green fluorescence.
Following human cell lines were used for routine screening of the compounds: T-lymphoblastic leukemia cell line CEM, promyelocytic leukemia cell line HL-60, erytroid leukemia cell line K-562, breast carcinoma cell line MCF-7, osteosarcoma cell line HOS and melanoma cell line G-361. Mouse cell lines B16-F10 (melanoma) and NIH-3T3 (fibroblasts) were used as well. The cells were maintained in Nunc/Corning 80 cm^2 plastic tissue culture flasks and cultured in cell culture medium (DMEM with 5 g/l glucose, 2 mM glutamine, 100 U/ml penicillin, 100 μg/ml streptomycin, 10% fetal calf serum and sodium bicarbonate).
(§2) The cell suspensions were prepared and diluted according to the particular cell type and the expected target cell density (2.500-30.000 cells per well based on cell growth characteristics) and pippetted (80 μl) into 96-well plates. Inoculates were allowed a pre-incubation period of 24 hours at 37° C. and 5% CO2 for stabilisation. Tested compound was added in total volume of 20 μl of water at time zero. Usually, test compound was evaluated at six 3-fold dilutions. In routine testing, the highest concentration tested was 166.6 μM. All drug concentrations were tested in triplicates. Incubations of cells with the test compounds lasted for 72 hours at 37° C., in 5% CO2 atmosphere and 100% humidity. At the end of incubation period Calcein AM in PBS was added into final concentration of 1 μg/ml. After another 1 hour of incubation fluorescence (FD) was measured with the Labsystem FIA Reader Fluoroscan Ascent (UK). Growth inhibition (GI) was estimated using the following equitation: GI=(mean FDdrug exposed wells−mean FDblank)/(mean FDcontrol wells−mean FDblank)×100%. The GI50 value, the drug concentration causing 50% reduction of Calcein AM conversion, was calculated from the obtained dose response curves.

[2] = system: breast carcinoma cell line MCF-7; assay type: cell-based, human
Description: as §1
(§3) Mouse cell lines B16-F10 (melanoma) and NIH-3T3 (fibroblasts) were used as well. The cells were maintained in Nunc/Corning 80 cm^2 plastic tissue culture flasks and cultured in cell culture medium (DMEM with 5 g/l glucose, 2 mM glutamine, 100 U/ml penicillin, 100 μg/ml streptomycin, 10% fetal calf serum and sodium bicarbonate).
as §2, with “In routine testing, the highest concentration tested was 166.6 μM.” left out, “FDblank)×100%.” for “FDblank)×100%. The GI50 value, the drug concentration causing 50% reduction of Calcein AM conversion, was calculated from the obtained dose response curves.”

NIH-3T3 (fibroblasts) = assay type: cell-based, Mouse
Description: as §1, §3
as §2, with “In routine testing, the highest concentration tested was 166.6 μM.” left out, “FDblank)×100%.” for “FDblank)×100%. The GI50 value, the drug concentration causing 50% reduction of Calcein AM conversion, was calculated from the obtained dose response curves.”

Measured: GI50

CSc1nc(Nc2cccc(O)c2)c2nc[nH]c2n1 [Compound 101]
> 167 µM: [1] | [2]; 72 hours, read-out: GI50 MCF7 | NIH-3T3 (fibroblasts); 72 hours

CSc1nc(Nc2ccccc2)c2[nH]cnc2n1 [Compound 94, 2-Methylthio-6-anilinopurine]
> 167 µM: [1]; Homo sapiens | [2]; Homo sapiens, MCF7, 72 hours | NIH-3T3 (fibroblasts); Mus musculus, NIH3T3, 72 hours

COc1ccccc1Nc1nc(S)nc2nc[nH]c12 [Compound 87]
> 167 µM: [1] | [2]; 72 hours, read-out: GI50 MCF7 | NIH-3T3 (fibroblasts); 72 hours

Sc1nc(Nc2ccccc2)c2nc[nH]c2n1 [Compound 78, 2-Thio-6-anilinopurine]
> 167 µM: [1] | [2]; 72 hours, read-out: GI50 MCF7 | NIH-3T3 (fibroblasts); 72 hours

Cc1nc(Nc2cccc(O)c2)c2nc[nH]c2n1 [Compound 116]
> 167 µM: [1] | [2]; 72 hours, read-out: GI50 MCF7 | NIH-3T3 (fibroblasts); 72 hours
